These results are taken from US9580487B2, “Method of treating stomach or bowel-related disorders by administering glucagon-like-peptide-2 (GLP-2) analogues” (Zealand Pharma A/S, priority 2005, dated 2017).

“Also recorded” adds a separate entry of the source. No end group written: not given here.

In test [1] the test system is male C57BL mice. The test is described as follows: Screening for intestinal growth effects (small intestine and colon mass relative to body weight, small intestine-colon sensitivity index). It counts as in vivo. The settings on record: for Small intestine mass relative to [Gly2]GLP-2 / Preferential growth of small intestine versus colon (small intestine-colon sensitivity): 30 nmol/kg s.c. twice daily, ten days; for Small intestine mass relative to [Gly2]GLP-2: equimolar [Gly2]GLP-2; for Preferential growth of small intestine versus colon (small intestine-colon sensitivity): relative to [Gly2]GLP-2; for colon mass relative to body weight, % [Gly2]GLP-2 / small intestine-colon sensitivity index, (SI/Colon)X/(SI/Colon)[Gly2]GLP-2 %: male C57BL mice, 30 nmol/kg s.c. twice daily for ten days; for small intestine-colon sensitivity index, (SI/Colon)X/(SI/Colon)[Gly2]GLP-2 %: third value column. The procedure, abridged: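 Groups of six mice were dosed s.c. at 30 nmol/kg twice daily for ten days, with vehicle (PBS, pH 7.4) or equimolar [Gly2]GLP-2 as comparators. The sensitivity index was (SI/Colon) of the compound over that of [Gly2]GLP-2, with ≥1.05 counted as small-intestine-selective and ≤0.95 as colon-selective.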

For test [2], the system named is C57BL mice treated with 5-Fluorouracil (5-FU). The test is described as follows: 5-FU-induced small intestinal atrophy (SI-BW, SI length) in mice. It is filed as in vivo. Conditions: for 5-FU-induced small intestine atrophy (SI-BW, SI length): 5-405 (810) nmol/kg s.c. b.i.d., 3 days prior to and 4 days with 5-FU 50 mg/kg i.p. daily; for Efficacy on SI-length compared with 405 nmol/kg [Gly2]GLP-2 / Efficacy on SI-BW compared with 405 nmol/kg [Gly2]GLP-2: 5-FU treated mice; for Efficacy on SI-BW compared with 405 nmol/kg [Gly2]GLP-2: equimolar dose; for Efficacy on 5-FU-induced atrophy compared with [Gly2]GLP-2 (figure legends): high/highest doses vs [Gly2]GLP-2 405 nmol/kg. On the procedure:
(§1) FIG. 6 is a set of graphs showing the effect of compound 1846 (SEQ ID NO:34) (5, 15, 45, 135, 405 and 810 nmol/kg, s.c., b.i.d.; n=6/dose group) on A) small intestine-to-body weight ratio (SI-BW), and B) small intestinal length (SI length) in mice treated with the cytostatic drug 5-Fluorouracil (5-FU). Compound 1846 (SEQ ID NO:34) was administered for 3 days prior to and for 4 days together with 5-FU, 50 mg/kg, i.p. daily. For reference, [Gly2]GLP-2 (SEQ ID NO:54) (405 nmol/kg) was given to one group of animals. Results from control animals treated with vehicle (PBS) or 5-FU alone are also shown. […] Values are means±SEM. * P<0.05, relative to 5-FU.
as §1, with “FIG. 7” for “FIG. 6”, “compound 1848” for “compound 1846”, “ID NO:36)” for “ID NO:34)”, “Compound 1848” for “Compound 1846”, “5-FU. # P<0.05, relative to [Gly2]GLP-2.” for “5-FU.”
FIG. 8 is a set of graphs showing the effect of compound 1855 (SEQ ID NO:43) (5, 15, 45, 135, and 405 nmol/kg, s.c., b.i.d.; n=6/dose group) on A) small intestine-to-body weight ratio (SI-BW), and B) small intestinal length (SI length) in mice treated with the cytostatic drug 5-Fluorouracil (5-FU). Compound 1855 (SEQ ID NO:43) was administered for 3 days prior to and for 4 days together with 5-FU, 50 mg/kg, i.p. daily. For reference, [Gly2]GLP-2 (405 nmol/kg) was given to one group of animals. Results from control animals treated with vehicle (PBS) or 5-FU alone are also shown. […] Values are means±SEM. * P<0.05, relative to 5-FU. # P<0.05, relative to [Gly2]GLP-2 (SEQ ID NO:54).
FIG. 9 is a set of graphs showing the effect of compound 1857 (SEQ ID NO:45) (5, 15, 45, 135, and 405 nmol/kg, s.c., b.i.d.; n=6/dose group) on A) small intestine-to-body weight ratio (SI-BW), and B) small intestinal length (SI length) in mice treated with the cytostatic drug 5-Fluorouracil (5-FU). Compound 1857 (SEQ ID NO:45) was administered for 3 days prior to and for 4 days together with 5-FU, 50 mg/kg, i.p. daily. For reference, [Gly2]GLP-2 (SEQ ID NO:54) (405 nmol/kg) was given to one group of animals. Results from control animals treated with vehicle (PBS) or 5-FU alone are also shown. […] Values are means±SEM. * P<0.05, relative to 5-FU. # P<0.05, relative to [Gly2]GLP-2 (SEQ ID NO:54).
The rapid rate of proliferation of the small intestinal stem cells, makes them a susceptible target to the cytotoxic effects of the chemotherapeutic agents used in anti-cancer therapies. Consequently, clinical use of the chemotherapeutic agent 5-fluorouracil (5-FU) is frequently associated with small intestinal injury (atrophy and diarrhea in cancer patients. We have previously shown that i.p. administration of 50 mg/kg 5-FU once daily for four days induces significant small intestinal atrophy in C57BL mice. The effect of the lead compounds, 1846 (SEQ ID NO:34), 1848 (SEQ ID NO:36), 1855 (SEQ ID NO:43), and 1857 (SEQ ID NO:45) on 5-FU-induced small intestinal atrophy was investigated in mice. 1846 (SEQ ID NO:34), 1848 (SEQ ID NO:36), 1855 (SEQ ID NO:43), or 1857 (SEQ ID NO:45) were administered twice daily for three days prior to 5-FU and for four days together with 5-FU administration. The lead compounds were each administered at five different doses (5, 15, 45, 135 and 405 nmol/kg) that have been previously shown to effectively stimulate small intestine growth in healthy mice (Example 9). […]

On to “[Gly2, Glu3, Leu10, Ser11, Ala16,24,28]hGLP-2(1-33)-NH2 [Compound 1857]”, for which, in test [1], the “Small intestine mass relative to [Gly2]GLP-2” value was “increased small intestine mass relative to [Gly2]GLP-2”; the “Preferential growth of small intestine versus colon (small intestine-colon sensitivity)” value was “preferentially stimulating epithelial growth in the small intestine”; the “colon mass relative to body weight, % [Gly2]GLP-2” value was found to be 90 % [Gly2]GLP-2; the “small intestine-colon sensitivity index, (SI/Colon)X/(SI/Colon)[Gly2]GLP-2 %” value came out at 130 % [Gly2]GLP-2. In test [2], the “5-FU-induced small intestine atrophy (SI-BW, SI length)” value (“5-FU-induced small intestine atrophy” for short) was “prevented 5-FU-induced small intestine atrophy; also recorded: dose-dependently prevented 5-FU-induced SI atrophy and maintained SI-BW at levels similar to PBS controls”; the “Efficacy on SI-length compared with 405 nmol/kg [Gly2]GLP-2” value is “significantly more efficacious than 405 nmol/kg [Gly2]GLP-2”; the “Efficacy on SI-BW compared with 405 nmol/kg [Gly2]GLP-2” value is “significantly more efficacious than 405 nmol/kg [Gly2]GLP-2”.

In the case of “[Gly2, Glu3, Thr5, Ser8, Leu10, Ala11,16,24,28]hGLP-2(1-33)-NH2 [Compound 1855]”, in test [1], the “Small intestine mass relative to [Gly2]GLP-2” value was “increased small intestine mass relative to [Gly2]GLP-2”; the “Preferential growth of small intestine versus colon (small intestine-colon sensitivity)” value is reported as “supplementary increase in the weight of the small intestine without significant effecting the weight of the colon; also recorded: preferentially stimulating epithelial growth in the small intestine”; the “colon mass relative to body weight, % [Gly2]GLP-2” value is 88 % [Gly2]GLP-2; the “small intestine-colon sensitivity index, (SI/Colon)X/(SI/Colon)[Gly2]GLP-2 %” value stood at 120 % [Gly2]GLP-2. In test [2], the “5-FU-induced small intestine atrophy” value was “prevented 5-FU-induced small intestine atrophy; also recorded: dose-dependently prevented 5-FU-induced SI atrophy and maintained SI-BW at levels similar to PBS controls”; the “Efficacy on SI-BW compared with 405 nmol/kg [Gly2]GLP-2” value is “significantly more efficacious than 405 nmol/kg [Gly2]GLP-2”; the “Efficacy on 5-FU-induced atrophy compared with [Gly2]GLP-2 (figure legends)” value is “more efficacious than the equimolar dose of [Gly2]GLP-2; also recorded: more efficacious than a high dose of [Gly2]GLP-2”.

As to “[Gly2, Glu3, Thr5, Ser8, Leu10, Ala11,16,24,28]hGLP-2(1-33)-(Lys)6-NH2 (HGEGTFSSELATILDALAARDFIAWLIATKITDKKKKKK-NH2) [Compound 1848]”, in test [1], the “Small intestine mass relative to [Gly2]GLP-2” value is “increased small intestine mass relative to [Gly2]GLP-2”; the “Preferential growth of small intestine versus colon (small intestine-colon sensitivity)” value is on record as “supplementary increase in the weight of the small intestine without significant effecting the weight of the colon; also recorded: preferentially stimulating epithelial growth in the small intestine”; the “colon mass relative to body weight, % [Gly2]GLP-2” value amounted to 93 % [Gly2]GLP-2; the “small intestine-colon sensitivity index, (SI/Colon)X/(SI/Colon)[Gly2]GLP-2 %” value worked out at 117 % [Gly2]GLP-2. Moreover, in test [2], the “5-FU-induced small intestine atrophy” value was “prevented 5-FU-induced small intestine atrophy; also recorded: dose-dependently prevented 5-FU-induced SI atrophy and maintained SI-BW at levels similar to PBS controls”; the “Efficacy on SI-length compared with 405 nmol/kg [Gly2]GLP-2” value was “significantly more efficacious than 405 nmol/kg [Gly2]GLP-2”; the “Efficacy on SI-BW compared with 405 nmol/kg [Gly2]GLP-2” value was “significantly more efficacious than 405 nmol/kg [Gly2]GLP-2”; the “Efficacy on 5-FU-induced atrophy compared with [Gly2]GLP-2 (figure legends)” value was “more efficacious than [Gly2]GLP-2”.

On to “[Gly2, Glu3, Ser8,11, Leu10, Ala16,24,28]hGLP-2(1-33)-(Lys)6-NH2 (HGEGSFSSELSTILDALAARDFIAWLIATKITDKKKKKK-NH2) [Compound 1846]”, for which, in test [1], the “Small intestine mass relative to [Gly2]GLP-2” value is “increased small intestine mass relative to [Gly2]GLP-2”; the “Preferential growth of small intestine versus colon (small intestine-colon sensitivity)” value was “supplementary increase in the weight of the small intestine without significant effecting the weight of the colon; also recorded: preferentially stimulating epithelial growth in the small intestine”; the “colon mass relative to body weight, % [Gly2]GLP-2” value amounted to 102 % [Gly2]GLP-2; the “small intestine-colon sensitivity index, (SI/Colon)X/(SI/Colon)[Gly2]GLP-2 %” value worked out at 118 % [Gly2]GLP-2. Besides, in test [2], the “5-FU-induced small intestine atrophy” value is “prevented 5-FU-induced small intestine atrophy; also recorded: dose-dependently prevented 5-FU-induced SI atrophy and maintained SI-BW at levels similar to PBS controls”.
